Results: patent publication US10543195B2, “Peptides for skin rejuvenation and methods of using the same” (Anteis SA, priority 2013, dated 2020)
* marks the point of attachment. Palmitoyl = CCCCCCCCCCCCCCCC(=O)*

Tests used:
collagen VI (alpha 1) = assay: RT-qPCR gene expression in NHDF: collagen VI (alpha 1); assay type: cell-based, human; conditions: 300 ppm (0.03%), 24 h, vs control
Description: (§1) Normal human dermal fibroblasts (NHDF); used at the 8th passage, were cultured in culture medium (DMEM supplemented with 10% fetal calf serum, 2 mM L-glutamine, 50 U/ml penicillin, and 50 μg/ml streptomycin) in 24-well plates for 48 h at 37° C. and 5% CO2 with a renewal of culture medium after 24 h. The culture medium was then removed, replaced by assay medium (DMEM culture medium supplemented with 1% fetal calf serum, 2 mM L-glutamine, 50 U/ml penicillin, and 50 μg/ml streptomycin) and the cells were further incubated for 24 h. The cells were then treated with the test peptides, or not (control), or with the reference TGF-beta 1 and incubated for 24 h. […] The expression of the markers was analyzed using quantitative real time polymerase chain reaction (RT-qPCR) method on mRNA extracted from the cell monolayers for each treatment; whereby the replicates were pooled before RNA extraction. […] The amount and quality of RNA were evaluated using a lab-on-a-chip Bioanalyzer (Agilent Technologies). […] Quantification of cDNA was performed using Nanovue (GE Healthcare) and cDNA was adjusted. […]
(§2) The incorporation of the fluorescence in amplified DNA was continuously measured during the PCR cycles. […] The value selected for RE calculations is the “output point” (Ct) of the fluorescence curve. For a considered marker, the highest is the cycle number; the lowest is the mRNA quantity. […]

collagen V (alpha 1) = assay: RT-qPCR gene expression in NHDF: collagen V (alpha 1); assay type: cell-based, human; conditions: 300 ppm (0.03%), 24 h, vs control
Description: as §1, §2

collagen I (alpha 1) = assay: RT-qPCR gene expression in NHDF: collagen I (alpha 1); assay type: cell-based, human; conditions: 24 h, vs control; for stimulation of formation of collagen I (alpha 1) (mRNA, RT-qPCR): 300 ppm (0.03%)
Description: (§3) Normal human dermal fibroblasts (NHDF); used at the 8th passage, were cultured in culture medium (DMEM supplemented with 10% fetal calf serum, 2 mM L-glutamine, 50 U/ml penicillin, and 50 μg/ml streptomycin) in 24-well plates for 48 h at 37° C. and 5% CO2 with a renewal of culture medium after 24 h. The culture medium was then removed, replaced by assay medium (DMEM culture medium supplemented with 1% fetal calf serum, 2 mM L-glutamine, 50 U/ml penicillin, and 50 μg/ml streptomycin) and the cells were further incubated for 24 h. The cells were then treated with the test peptides, or not (control), or with the reference TGF-beta 1 and incubated for 24 h. All experimental conditions were performed 4-times (n=4). At the end of the incubation, the cells were washed in PBS solution and immediately frozen at about −80° C. The expression of the markers was analyzed using quantitative real time polymerase chain reaction (RT-qPCR) method on mRNA extracted from the cell monolayers for each treatment; whereby the replicates were pooled before RNA extraction. Analysis of gene expression was performed in duplicate (n=2) using a PCR array. Total RNA was extracted from each sample using TriPure Isolation Reagent® according to the supplier's instructions. The amount and quality of RNA were evaluated using a lab-on-a-chip Bioanalyzer (Agilent Technologies). […] Quantification of cDNA was performed using Nanovue (GE Healthcare) and cDNA was adjusted. […]
as §2
(§4) This evaluation was realized with non-cytotoxic concentrations of the test peptides. Cytotoxicity of the test peptides in the assay medium was previously determined in NHDF by the MTT reduction assay and morphological observations with help of microscope after a 24 h incubation time. […]

[1] = tested on: heparan sulfate protoglycan 2; assay: RT-qPCR gene expression in NHDF: heparan sulfate protoglycan 2; assay type: cell-based, human; conditions: 300 ppm (0.03%), 24 h, vs control
Description: as §1, §2

hyaluronan synthase 2 = assay: RT-qPCR gene expression in NHDF: hyaluronan synthase 2; assay type: cell-based, human; conditions: 300 ppm (0.03%), 24 h, vs control
Description: as §1, §2

hyaluronic acid [2] = assay: Hyaluronic acid ELISA in culture supernatant of NHDF; assay type: cell-based, human; conditions: 72 h
Source text: For the interpretation of the data related to the stimulation of the formation of extracellular matrix components as determined during the in vitro experiments, a “significant” stimulation of the formation of extracellular matrix components means a stimulation of at least 20% more than measured using a control material under identical experimental conditions. The control material is the identical material (here: assay medium) as used when testing the active (here: peptide(s)) but without the active(s).
Normal human dermal fibroblasts (NHDF); used at the 8th passage, were cultured in culture medium (DMEM supplemented with 10% fetal calf serum, 2 mM L-glutamine, 50 U/ml penicillin, and 50 μg/ml streptomycin) in 96-well plates for 24 h at 37° C. and 5% CO2.
Afterwards, the culture medium was removed and replaced by assay medium (DMEM culture medium supplemented with 2% fetal calf serum, 2 mM L-glutamine, 50 U/ml penicillin, and 50 μg/ml streptomycin) containing the test peptides or not (control). The cells were then incubated for 72 h. All experimental conditions were performed 3-times (n=3). At the end of the incubation, culture supernatants were collected and immediately frozen at about −80° C.
Hyaluronic acid was quantified in the culture supernatant using the Duoset Hylaluronan ELISA kit (R&D Systems Ref. DY3614, 0.37 ng/ml as low detection limit) according to the provider's specifications.
This evaluation was realized with non-cytotoxic concentrations of the test peptides. Cytotoxicity of the test peptides in the assay medium was previously determined in NHDF by the MTT reduction assay and morphological observations with help of microscope after a 72 h incubation time.

elastin = assay: RT-qPCR gene expression in NHDF: elastin; assay type: cell-based, human; conditions: 300 ppm (0.03%), 24 h, vs control
Description: as §1, §2

fibrillin 1 = assay: RT-qPCR gene expression in NHDF: fibrillin 1; assay type: cell-based, human; conditions: 300 ppm (0.03%), 24 h, vs control
Description: as §1, §2

collagen III (alpha 1) = assay: RT-qPCR gene expression in NHDF: collagen III (alpha 1); assay type: cell-based, human; conditions: 24 h, vs control; for stimulation of formation of collagen III (alpha 1) (mRNA, RT-qPCR): 300 ppm (0.03%)
Description: as §3, §2, §4

laminin (alpha 4) = assay: RT-qPCR gene expression in NHDF: laminin (alpha 4); assay type: cell-based, human; conditions: 300 ppm (0.03%), 24 h, vs control
Description: as §1, §2

collagen XVI (alpha 1) = assay: RT-qPCR gene expression in NHDF: collagen XVI (alpha 1); assay type: cell-based, human; conditions: 300 ppm (0.03%), 24 h, vs control
Description: as §1, §2

collagen VII (alpha 1) = assay: RT-qPCR gene expression in NHDF: collagen VII (alpha 1); assay type: cell-based, human; conditions: 300 ppm (0.03%), 24 h, vs control
Description: as §1, §2

rat experimental wounds = conditions: cited from earlier work
hyaluronic acid [3] = conditions: oil-in-water vehicle containing 50 ppm GEKG for sixty days; cited from earlier work
human skin explants = conditions: 3H-proline-incorporation; cited from earlier work
collagen III = conditions: immunofluorescence, normal human dermal fibroblasts; cited from earlier work
collagen I = conditions: ELISA, normal human dermal fibroblasts; cited from earlier work

For `CCCCCCCC(=O)NCCC(=O)NC(Cc1cnc[nH]1)C(=O)O` (stereo not drawn) [Octanoyl Carnosine, Octanoyl-beta-Ala-His-OH], the “stimulation of formation of collagen VI (alpha 1) (mRNA, RT-qPCR)” value (collagen VI (alpha 1)) was 46%, the “stimulation of formation of collagen V (alpha 1) (mRNA, RT-qPCR)” value (collagen V (alpha 1)) was 35% and the “stimulation of formation of collagen I (alpha 1) (mRNA, RT-qPCR)” value (collagen I (alpha 1)) was 38%. For the same compound, the “stimulation of formation of heparan sulfate protoglycan 2 (mRNA, RT-qPCR)” value [1] was 79%, the “stimulation of formation of hyaluronan synthase 2 (mRNA, RT-qPCR)” value (hyaluronan synthase 2) was 23% and the “stimulation of synthesis of hyaluronic acid” value (hyaluronic acid [2]; alone at 100 pm) was −5%. For the same compound, the “stimulation of formation of elastin (mRNA, RT-qPCR)” value (elastin) was 51%, the “stimulation of formation of fibrillin 1 (mRNA, RT-qPCR)” value (fibrillin 1) was 23% and the “stimulation of formation of collagen III (alpha 1) (mRNA, RT-qPCR)” value (collagen III (alpha 1)) was 120%. For the same compound, the “stimulation of formation of laminin (alpha 4) (mRNA, RT-qPCR)” value (laminin (alpha 4)) was 20%, the “stimulation of formation of collagen XVI (alpha 1) (mRNA, RT-qPCR)” value (collagen XVI (alpha 1)) was 91% and the “stimulation of formation of collagen VII (alpha 1) (mRNA, RT-qPCR)” value (collagen VII (alpha 1)) was 97%.

For `NCCC(=O)N[C@@H](Cc1cnc[nH]1)C(=O)O` [beta-alanyl-histidine], the “stimulation of formation of collagen I (alpha 1) (mRNA, RT-qPCR)” value (collagen I (alpha 1)) was 28% and the “stimulation of formation of collagen III (alpha 1) (mRNA, RT-qPCR)” value (collagen III (alpha 1)) was 24%.

For GHK-Cu, the collagen accumulation (rat experimental wounds) is given as “statistical significant increase of collagen accumulation”.

In the case of Gly-His-Lys [GHK], the collagen accumulation (rat experimental wounds) is given as “no effect”.

For NH2-Gly-Glu-Lys-Gly-OH (H-GEKG-OH), the hyaluronic acid formation (hyaluronic acid [3]) is given as “stimulate hyaluronic acid formation” and the “stimulation of synthesis of hyaluronic acid” value (hyaluronic acid [2]; alone at 100 or 300 ppm) is given as “up to 25%”.

For “Palmitoyl-Gly-His-Lys-OH [Palmitoyl-GHK]”, the “stimulation of synthesis of hyaluronic acid” value (hyaluronic acid [2]; alone at 10 or 30 ppm) is listed as “up to 11%” and the “increase of collagen synthesis” value (human skin explants) is listed as “up to 75.3%”.

With “TGF-beta 1: reference TGF-beta 1 (10 ng/ml) in the gene expression test” the “stimulation of formation of collagen I (mRNA, RT-qPCR)” value (collagen I (alpha 1); 10 ng/ml) was 245% and the “stimulation of formation of collagen III (mRNA, RT-qPCR)” value (collagen III (alpha 1); 10 ng/ml) was 164%.

In the case of palmitoyl-KMO2K—OH, the “increase of collagen III formation” value (collagen III) is listed as 104% and the “increase of collagen I formation” value (collagen I) is listed as 111%.
